# pIC50: −log10 of the molar value.
# Test system: asymmetric di-methyl PABP1 in RKO cells
# Experiment: RKO methylation assay, In Cell Western (ICW) for asymmetric di-methyl PABP1
# Type: cell-based
# Details: Homo sapiens, RKO, Cellular potencies, ICW PABP1me2a
# Description: RKO adherent cells were purchased from ATCC (American Type Culture Collection), Manassas, Va., USA. DMEM/Glutamax medium, penicillin-streptomycin, heat inactivated fetal bovine serum, 0.05% trypsin and D-PBS were purchased from Life Technologies, Grand Island, N.Y., USA. Odyssey blocking buffer, 800 CW goat anti-rabbit IgG (H+L) antibody, and Licor Odyssey infrared scanner were purchased from Licor Biosciences, Lincoln, Nebr., USA. Asymmetric di-methyl PABP1 antibody was purchased from Cell Signaling Technology, Danvers, Mass., USA. Methanol was purchased from VWR, Franklin, Mass., USA. 10% Tween 20 was purchased from KPL, Inc., Gaithersburg, Md., USA. Paraformaldehyde (PFA) was purchased from EM Sciences. DRAQ5 was purchased from Biostatus Limited, Leicestershire, UK.
# RKO adherent cells were maintained in growth medium (DMEM/Glutamax medium supplemented with 10% v/v heat inactivated fetal bovine serum and 100 units/mL penicillin-streptomycin) and cultured at 37° C. under 5% CO2.
# Cell treatment, In Cell Western (ICW) for detection of asymmetric di-methyl PABP1 and DNA content: RKO cells were seeded in assay medium at a concentration of 30,000 cells per mL to a poly-D-lysine coated 384 well culture plate (BD Biosciences 356697) with 50 VL per well. Compound (100 nL) from a 96-well source plate was added directly to 384 well cell plate. Plates were incubated at 37° C., 5% CO2 for 48 hours. After two days of incubation, plates were brought to room temperature outside of the incubator for ten minutes and blotted on paper towels to remove cell media. Cells were fixed for 20 minutes at room temperature by adding 50 ul of 8% PFA followed by aspiration of supernatant with the Biotek EL406 plate washer. Cells were then permeabilized by addition of 50 μL of ice cold 100% methanol directly to each well and incubated for 30 min at room temperature. After 30 min, plates were transferred to a Biotek EL406 plate washer and washed 2 times with 100 μL per well of wash buffer (1×PBS). Next 60 μL per well of Odyssey blocking buffer (Odyssey Buffer with 0.1% Tween 20 (v/v)) were added to each plate and incubated 1 hour at room temperature. Blocking buffer was removed and 20 μL per well of primary antibody was added (asymmetric-methyl PABP1) diluted 1:400 in Odyssey buffer with 0.1% Tween 20 (v/v)) and plates were incubated overnight (16 hours) at 4° C. Plates were washed 5 times with 100 μL per well of wash buffer. Next 20 μL per well of secondary antibody was added (1:800 800 CW goat anti-rabbit IgG (H+L) antibody, 1:2000 DRAQ5 in Odyssey buffer with 0.1% Tween 20 (v/v)) and incubated for 1 hour at room temperature. The plates were washed 5 times with 100 μL per well wash buffer then 2 times with 100 μL per well of water. Plates were allowed to dry at room temperature then imaged on the Licor Odyssey machine which measures integrated intensity at 700 nm and 800 nm wavelengths. Both 700 and 800 channels were scanned.
# First, the ratio for each well was determined by:
# Each plate included fourteen control wells of DMSO only treatment (minimum inhibition) as well as fourteen control wells for maximum inhibition treated with 20 μM of a reference compound. The average of the ratio values for each control type was calculated and used to determine the percent […] for each test well in the plate. Reference compound was serially diluted three-fold in DMSO for a total of nine test concentrations, beginning at 20 μM.
# Percent inhibition was determined and IC50 curves were generated using triplicate wells per concentration of compound. […]
row,pIC50,SMILES
1,> 5.30,CCOC(=O)N1CCOC[C@H]1CNc1nc(-c2cc(OC[C@H](O)CNC)ccc2F)nc(-c2c(C)noc2C)c1C [Example 60-3]
2,4.70 to 5.00,CNCC(O)COc1cccc(-c2nc(-c3c(C)noc3C)cc(N(C)c3cnc(C)nc3)n2)c1 (stereo not shown) [Example 61-1a]
3,> 5.30,CCOC(=O)N1CCOC[C@@H]1CNc1nc(-c2cc(OC[C@@H](O)CNC)ccc2F)nc(-c2c(C)noc2C)c1C [Example 61-3]
4,> 5.30,CCOC(=O)N1CCOC[C@@H]1CNc1nc(-c2cc(OC[C@H](O)CNC)ccc2F)nc(-c2c(C)noc2C)c1C [Example 62-3]
5,> 5.30,CNC[C@H](O)COc1ccc(F)c(-c2nc(N[C@H]3CCN(C(=O)OC)C[C@H]3F)c(C)c(-c3c(C)noc3C)n2)c1 [Example 63-3]
6,> 5.30,CNC[C@@H](O)COc1ccc(F)c(-c2nc(N[C@H]3CCN(C(=O)OC)C[C@H]3F)c(C)c(-c3c(C)noc3C)n2)c1 [Example 64-3]
7,> 5.30,CNC[C@H](O)COc1ccc(Cl)c(-c2nc(N[C@H]3CCN(C(=O)OC)C[C@H]3F)c(C)c(-c3c(C)noc3C)n2)c1 [Example 65-3]
8,> 5.30,CNCC(O)COc1cccc(-c2nc(N[C@@H]3CCOC3)c(C)c(-c3c(C)noc3C)n2)c1 (stereo partly shown) [Example 66-1a]
9,> 5.30,CNC[C@H](O)COc1ccc(Cl)c(-c2nc(N[C@@H]3CCN(C(=O)OC)[C@@H](C)C3)c(C)c(-c3c(C)noc3C)n2)c1 [Example 66-3]
10,4.70 to 5.00,CNCC(O)COc1cccc(-c2nc(N[C@H]3C[C@@](C)(O)C3)cc(-c3c(C)noc3C)n2)c1 (stereo partly shown) [Example 67-1a]
11,> 5.30,CCS(=O)(=O)N1CCC(Nc2nc(-c3cc(OC[C@@H](O)CNC)ccc3Cl)nc(-c3c(C)noc3C)c2C)CC1 [Example 67-3]
12,5.00 to 5.30,CNCC(O)COc1cccc(-c2nc(-c3c(C)noc3C)cc(N3CCN(CCF)CC3)n2)c1 (stereo not shown) [Example 68-1a]
13,> 5.30,CNC[C@@H](O)COc1cccc(-c2nc(N[C@@H]3CCN(C4CC4)C[C@@H]3F)c(Cl)c(-c3c(C)noc3C)n2)c1 [Example 68-3]
14,4.70 to 5.00,CNCC(O)COc1cccc(-c2nc(-c3c(C)noc3C)cc(N3CC[C@H](S(C)(=O)=O)C3)n2)c1 (stereo partly shown) [Example 69-1a]
15,> 5.30,CNC[C@H](O)COc1ccc(Cl)c(-c2nc(-c3c(C)noc3C)cc(N3CC4(CCN(C5CC5)CC4)C3)n2)c1 [Example 69-3]
16,4.70 to 5.00,CNCC(O)COc1cc(Cl)cc(-c2nc(-c3ccn4cnnc4c3)c(C)c(N(C)C3CCOCC3)n2)c1 (stereo not shown) [Example 70-1]
17,> 5.30,CNCC(O)COc1cccc(-c2nc(-c3c(C)noc3C)cc(N3CCN(C(C)=O)C4(CC4)C3)n2)c1 (stereo not shown) [Example 70-1a]
18,> 5.30,CCS(=O)(=O)N1CCC(Nc2nc(-c3cccc(OCC(O)CNC)c3)nc(-c3c(C)nsc3C)c2C)CC1 (stereo not shown) [Example 70-3]
19,> 5.30,CNCC(O)COc1cccc(-c2nc(-c3c(C)noc3C)c(C)c(N3CC[C@H](N(C)C(C)=O)C3)n2)c1 (stereo partly shown) [Example 71-1a]
20,4.70 to 5.00,CCS(=O)(=O)N1CCOC[C@@H]1CNc1nc(-c2cccc(OCC(O)CNC)c2)nc(-c2c(C)nsc2C)c1C (stereo partly shown) [Example 71-3]
21,> 5.30,CNCC(O)COc1cccc(-c2nc(Nc3cnc(OC)nc3)cc(-c3c(C)noc3C)n2)c1 (stereo not shown) [Example 72-1a]
22,> 5.30,CNC[C@H](O)COc1ccc(F)c(-c2nc(NC3CCOCC3)c(C)c(-c3c(C)noc3C)n2)c1 [Example 72-3]
23,> 5.30,CNC[C@H](O)COc1ccc(F)c(-c2nc(NC3CCOC(C)C3)c(C)c(-c3c(C)noc3C)n2)c1 (stereo partly shown) [Example 73-3]
24,5.00 to 5.30,CNCC(O)COc1cc(N)cc(-c2nc(NC3CCOCC3)c(C)c(-c3c(C)noc3C)n2)c1 (stereo not shown) [Example 74-1a]
25,> 5.30,CNC[C@H](O)COc1ccc(Cl)c(-c2nc(-c3c(C)noc3C)c(C)c(N3CCN(C)C(C(F)F)C3)n2)c1 (stereo partly shown) [Example 74-3]
26,> 5.30,CNCC(O)COc1cc(OC)cc(-c2nc(NC3CCOCC3)c(C)c(-c3c(C)noc3C)n2)c1 (stereo not shown) [Example 75-1a]

row,pIC50,SMILES
1,> 5.30,CNC[C@H](O)COc1ccc(Cl)c(-c2nc(-c3c(C)noc3C)c(C)c(N3CCC4(CC3)CN(S(C)(=O)=O)C4)n2)c1 [Example 75-3]
2,4.70 to 5.00,CNCC(O)COc1cc(O)cc(-c2nc(NC3CCOCC3)c(C)c(-c3c(C)noc3C)n2)c1 (stereo not shown) [Example 76-1a]
3,> 5.30,CNC[C@H](O)COc1ccc(F)c(-c2nc(-c3c(C)noc3C)c(C)c(N3CCC4(CC3)CN(S(C)(=O)=O)C4)n2)c1 [Example 76-3]
4,> 5.30,CCOC(=O)N1CCN(c2nc(-c3cccc(OCC(O)CNC)c3)nc(-c3c(C)noc3C)c2C)CC1 (stereo not shown) [Example 77-1a]
5,> 5.30,CCN1CCC[C@@H]1CNc1nc(-c2cc(OC[C@@H](O)CNC)ccc2Cl)nc(-c2c(C)noc2C)c1C [Example 77-3]
6,5.00 to 5.30,CNCC(O)COc1cccc(-c2nc(NCC3CCOCC3)cc(-c3c(C)noc3C)n2)c1 (stereo not shown) [Example 78-1a]
7,> 5.30,CNCC(O)COc1cccc(-c2nc(-c3c(C)noc3C)cc(N3CCN(CC(F)F)CC3)n2)c1 (stereo not shown) [Example 79-1a]
8,4.70 to 5.00,CNCC(O)COc1cccc(-c2nc(-c3c(C)noc3C)cc(N3C[C@@H]4C[C@H]3CN4S(C)(=O)=O)n2)c1 (stereo partly shown) [Example 80-1a]
9,> 5.30,CNCC(O)COc1cccc(-c2nc(-c3c(C)noc3C)cc(N3CCN(C(=O)OC)CC3)n2)c1 (stereo not shown) [Example 81-1a]
10,> 5.30,CNC[C@H](O)COc1ccc(Cl)c(-c2nc(NCCC(C)(C)OC)c(C)c(-c3c(C)noc3C)n2)c1 [Example 82-3]
11,> 5.30,CNC[C@H](O)COc1ccc(F)c(-c2nc(NCCC(C)(C)OC)c(C)c(-c3c(C)noc3C)n2)c1 [Example 83-3]
12,> 5.30,CNCC(O)COc1cccc(-c2nc(-c3c(C)noc3C)c(C)c(N3C[C@@H]4C[C@H]3CN4C)n2)c1 (stereo partly shown) [Example 84-1a]
13,> 5.30,CNC[C@H](O)COc1ccc(F)c(-c2nc(-c3c(C)noc3C)c(C)c(N3CCC4(CC3)CN(C(=O)OC)C4)n2)c1 [Example 84-3]
14,> 5.30,CNCC(O)COc1cccc(-c2nc(NC3(C)CCOCC3)cc(-c3c(C)noc3C)n2)c1 (stereo not shown) [Example 85-1a]
15,> 5.30,CNC[C@H](O)COc1ccc(Cl)c(-c2nc(-c3c(C)noc3C)c(C)c(N3CCC4(CC3)CN(C(=O)OC)C4)n2)c1 [Example 85-3]
16,5.00 to 5.30,CNCC(O)COc1cccc(-c2nc(-c3c(C)noc3C)c(C)c(N(C)CC3CCOCC3)n2)c1 (stereo not shown) [Example 86-1a]
17,> 5.30,CNC[C@H](O)COc1ccc(Cl)c(-c2nc(-c3c(C)noc3C)c(C)c(N3Cc4cc(F)cnc4C3)n2)c1 [Example 86-3]
18,> 5.30,CNCC(O)COc1cccc(-c2nc(-c3c(C)noc3C)cc(N(C)CC3CCOCC3)n2)c1 (stereo not shown) [Example 87-1a]
19,> 5.30,CNC[C@H](O)COc1ccc(Cl)c(-c2nc(-c3c(C)noc3C)c(C)c(N3Cc4cc(Cl)cnc4C3)n2)c1 [Example 87-3]
20,> 5.30,CNCC(O)COc1cccc(-c2nc(NCC3CCOCC3)c(C)c(-c3c(C)noc3C)n2)c1 (stereo not shown) [Example 88-1a]
21,> 5.30,CCOC(=O)N1CCC(Nc2nc(-c3cc(OC[C@H](O)CNC)ccc3Cl)nc(-c3c(C)noc3C)c2C)CC1 [Example 88-3]
22,> 5.30,CNCC(O)COc1cccc(-c2nc(-c3c(C)noc3C)c(C)c(N(C)C3CCN(C(=O)OC)CC3)n2)c1 (stereo not shown) [Example 89-1a]
23,> 5.30,CNC[C@H](O)COc1ccc(Cl)c(-c2nc(NC3CCN(C(=O)OC)CC3)c(C)c(-c3c(C)noc3C)n2)c1 [Example 89-3]
24,> 5.30,CNCC(O)COc1cccc(-c2nc(-c3c(C)noc3C)cc(N(C)C3CCN(C(=O)OC)CC3)n2)c1 (stereo not shown) [Example 90-1a]
25,> 5.30,CNC[C@H](O)COc1ccc(Cl)c(-c2nc(-c3c(C)noc3C)c(C)c(N3Cc4ccncc4C3)n2)c1 [Example 90-3]
26,> 5.30,CNCC(O)COc1cccc(-c2nc(-c3c(C)noc3C)cc(N3CCN(C(=O)N(C)C)[C@@H](C)C3)n2)c1 (stereo partly shown) [Example 91-1a]

# — US10633389B2, “CARM1 inhibitors and uses thereof” (Epizyme, Inc., priority 2013, dated 2020)
